This is an account of results in US6288091A, “Antiherpes virus compounds and methods for their preparation and use” (Boehringer Ingelheim Ltd., priority 1999, dated 2001).

Experiment [1] relates to HSV-1 strain F or KOS. Briefly: Inhibition of herpes simplex virus (HSV-1) replication in cell culture (BHK-21 cells, glycoprotein C ELISA). In kind it is cell-based. Particulars: Human alphaherpesvirus 1, BHK-21, Group 1 Table 1 entries. On the procedure:
B) Inhibition of Herpes Simplex Virus (HSV-1) Replication in Cell Culture
BHK-21 cells clone 13 (ATCC CCL10) were incubated for two days in 850 cm^2 roller bottles (2×10^7 cells/bottle) with A-MEM medium (Gibco Canada Inc., Burlington, Ontario, Canada) supplemented with 8% (v/v) fetal bovine serum (FBS, Gibco Canada, Inc.). The cells were trypsinized and then 3,000 cells in 100 μL of fresh medium were transferred into each well of a 96-well microtiter plate. The cells were incubated at […] for a period of 3 days to reach a density of 50,000 cells per well. The cells were washed twice with 100 μL of α-MEM supplemented with 2% heat inactivated FBS and incubated for 1-2 hours in 100 μL of the same medium.
Thereafter, the cells were infected with HSV-1 strain F or KOS (multiplicity of infection =0.05 PFU/cell) in 50 μL of α-MEM supplemented with 2% heat inactivated FBS. Following one hour of virus absorption at 37°, the medium was removed and the cells were washed with α-MEM supplemented with 2% heat inactivated FBS (2×100 μL). The cells were incubated with or without 100 μL of the appropriate concentration of test reagent in α-MEM medium supplemented with 2% heat inactivated FBS. After 24 hours of incubation at 37°, the extent of viral replication was determined by an ELISA assay; for instance, the following assay that detects the late glycoprotein C of HSV-1.
Cells were fixed in the microtiter plate with 100 μL of 0.063% glutaraldehyde in phosphate buffered saline for 30 min at room temperature. The microtiter plate was then washed once with casein blocking solution and blocked with 200 μL of the same solution for one hour at room temperature. Thereafter, 100 μL of mAb C11 recognizing the glycoprotein C of HSV-1 (see E. Trybala et al., Journal of General Virology, 1994, 75, 743) was added to each well for two hours at room temperature. The plate was washed three times with phosphate buffered saline containing 0.05% polyoxyethylene (20) sorbitan monooleate. The cells were incubated with 100 μL of sheep anti-mouse IgG horseradish peroxidase for one hour at room temperature in the dark.
The plate was washed three times with 200 μL of the above-noted phosphate buffer saline preparation, and then once with 0.1 M sodium citrate (pH 4.5). Thereafter, 100 μL of orthophenylenediamine dihydrochloride (OPD, Gibco, Canada Inc.) was added to each well. The plate was agitated on a microplate shaker for 30 min in the dark. Color development was monitored at 450 nm using a microplate spectrophotometer.
SAS was used to calculate % inhibition of viral replication and to generate EC50 values.

Experiment [2] has as its target T1, HSV-1 helicase-primase (Human herpesvirus 1, UniProt P10189+P10236).
T1 construct: made in house; host or cells: Sf21 insect cells triply infected with recombinant baculoviruses (UL5, UL8, UL52)
Briefly: HSV-1 DNA-dependent ATPase assay (inhibition of HSV-1 helicase-primase). It is filed as biochemical. Particulars: Group 1 Table 1 entries. An excerpt:
A) HSV-1 DNA-Dependent ATP Assay (an in Vitro Assay Based on the Inhibition of HSV-1 Helicase-primase).
HSV-1 helicase-primase holoenzyme was produced in triply infected Sf21 cells using recombinant baculoviruses expressing the UL5, UL8 and UL52 helicase-primase subunits, as described by S. Dracheva et al., J. Biol. Chem. 1995, 270, 14148. The crude enzyme was purified by ammonium sulfate precipitation, Source 15Q® chromatography and Sephacryl® S-300 HR gel filtration (both purification systems can be obtained from Pharmacia Biotech Inc., Montreal, Quebec, Canada), see S. Dracheva et al., supra.
The DNA-dependent ATPase assay, described by J. J. Crute et al., Nucleic Acids Res. 1988, 16, 6585, was modified and used to evaluate the capability of the compounds of Group 1-formula 1 to inhibit HSV-1 helicase-primase activity. The reaction mixtures (80 μL each) contained 40 mM 4-(2-hydroxyethyl)-1-piperazineethanesulfonic acid (HEPES, pH 7.5), 10% (v/v) glycerol, 5.5 mM MgCl2, 1 mM DL-dithiothreitol (DTT), 50 μg/mL acetylated bovine serum albumin, 3.3% (v/v) DMSO, 4 mM ATP, 25 μM single-stranded M13 DNA hybridized to double-tailed 68-mer oligonucleotide and 3 μg/mL HSV-1 helicase-primase. After incubation for 20 min at 34°, formation of inorganic phosphate from hydrolysis of ATP was monitored spectrophotometrically at 650 nm using acidic ammonium molybdate/malachite green reagent, P. A. Lanzetta et al., Anal. Biochem. 1979, 100, 95. DNA-dependent ATPase activity was calculated from the net absorbance change in the presence and absence of inhibition.

Each structure is given as a SMILES string.

T1 sequence (P10192 whole entry): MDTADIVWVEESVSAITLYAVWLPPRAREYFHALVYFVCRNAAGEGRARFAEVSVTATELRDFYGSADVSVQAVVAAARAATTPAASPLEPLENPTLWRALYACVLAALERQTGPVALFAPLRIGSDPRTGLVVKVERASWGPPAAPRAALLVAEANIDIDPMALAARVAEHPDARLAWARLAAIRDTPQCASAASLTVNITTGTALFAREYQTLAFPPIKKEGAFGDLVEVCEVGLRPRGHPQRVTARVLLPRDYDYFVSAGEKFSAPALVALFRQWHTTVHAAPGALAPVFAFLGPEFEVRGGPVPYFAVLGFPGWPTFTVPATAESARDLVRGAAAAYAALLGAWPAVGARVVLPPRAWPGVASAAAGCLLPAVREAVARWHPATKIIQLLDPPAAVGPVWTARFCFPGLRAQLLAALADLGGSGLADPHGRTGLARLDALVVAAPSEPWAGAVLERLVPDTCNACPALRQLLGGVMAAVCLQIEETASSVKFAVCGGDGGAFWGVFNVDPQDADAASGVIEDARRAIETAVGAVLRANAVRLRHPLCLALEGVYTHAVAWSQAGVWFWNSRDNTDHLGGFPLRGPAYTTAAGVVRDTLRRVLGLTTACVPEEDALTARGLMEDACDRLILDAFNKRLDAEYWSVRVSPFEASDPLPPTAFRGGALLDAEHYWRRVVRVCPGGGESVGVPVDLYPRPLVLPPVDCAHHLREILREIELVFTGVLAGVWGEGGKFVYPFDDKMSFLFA
T1 sequence (P10236 whole entry): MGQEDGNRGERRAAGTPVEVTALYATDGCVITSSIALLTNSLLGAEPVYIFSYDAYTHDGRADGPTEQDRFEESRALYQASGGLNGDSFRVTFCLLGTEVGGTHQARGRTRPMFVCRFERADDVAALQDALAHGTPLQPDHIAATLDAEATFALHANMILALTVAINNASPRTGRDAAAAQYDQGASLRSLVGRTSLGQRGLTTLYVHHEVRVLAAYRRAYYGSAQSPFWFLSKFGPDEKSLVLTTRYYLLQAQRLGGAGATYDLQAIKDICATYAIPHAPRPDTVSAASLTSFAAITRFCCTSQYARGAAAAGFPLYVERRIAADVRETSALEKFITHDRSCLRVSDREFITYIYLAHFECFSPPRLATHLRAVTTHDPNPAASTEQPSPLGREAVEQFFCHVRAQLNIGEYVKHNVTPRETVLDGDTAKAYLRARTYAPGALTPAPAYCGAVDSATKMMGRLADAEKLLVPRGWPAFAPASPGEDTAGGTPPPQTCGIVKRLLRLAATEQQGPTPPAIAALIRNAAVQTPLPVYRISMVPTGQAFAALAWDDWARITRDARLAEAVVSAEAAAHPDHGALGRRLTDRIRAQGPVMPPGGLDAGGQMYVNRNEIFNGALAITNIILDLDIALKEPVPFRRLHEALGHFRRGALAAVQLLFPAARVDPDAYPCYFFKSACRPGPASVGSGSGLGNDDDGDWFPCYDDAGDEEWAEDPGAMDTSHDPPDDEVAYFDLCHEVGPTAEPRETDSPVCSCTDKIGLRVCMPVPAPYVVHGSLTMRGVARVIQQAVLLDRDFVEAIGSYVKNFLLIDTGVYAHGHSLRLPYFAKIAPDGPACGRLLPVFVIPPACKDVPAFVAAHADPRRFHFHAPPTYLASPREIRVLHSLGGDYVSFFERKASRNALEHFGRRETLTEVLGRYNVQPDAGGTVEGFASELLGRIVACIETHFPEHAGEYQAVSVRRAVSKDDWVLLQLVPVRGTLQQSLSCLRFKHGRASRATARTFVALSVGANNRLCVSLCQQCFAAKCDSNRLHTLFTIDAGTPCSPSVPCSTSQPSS
T1 sequence (P10189 whole entry): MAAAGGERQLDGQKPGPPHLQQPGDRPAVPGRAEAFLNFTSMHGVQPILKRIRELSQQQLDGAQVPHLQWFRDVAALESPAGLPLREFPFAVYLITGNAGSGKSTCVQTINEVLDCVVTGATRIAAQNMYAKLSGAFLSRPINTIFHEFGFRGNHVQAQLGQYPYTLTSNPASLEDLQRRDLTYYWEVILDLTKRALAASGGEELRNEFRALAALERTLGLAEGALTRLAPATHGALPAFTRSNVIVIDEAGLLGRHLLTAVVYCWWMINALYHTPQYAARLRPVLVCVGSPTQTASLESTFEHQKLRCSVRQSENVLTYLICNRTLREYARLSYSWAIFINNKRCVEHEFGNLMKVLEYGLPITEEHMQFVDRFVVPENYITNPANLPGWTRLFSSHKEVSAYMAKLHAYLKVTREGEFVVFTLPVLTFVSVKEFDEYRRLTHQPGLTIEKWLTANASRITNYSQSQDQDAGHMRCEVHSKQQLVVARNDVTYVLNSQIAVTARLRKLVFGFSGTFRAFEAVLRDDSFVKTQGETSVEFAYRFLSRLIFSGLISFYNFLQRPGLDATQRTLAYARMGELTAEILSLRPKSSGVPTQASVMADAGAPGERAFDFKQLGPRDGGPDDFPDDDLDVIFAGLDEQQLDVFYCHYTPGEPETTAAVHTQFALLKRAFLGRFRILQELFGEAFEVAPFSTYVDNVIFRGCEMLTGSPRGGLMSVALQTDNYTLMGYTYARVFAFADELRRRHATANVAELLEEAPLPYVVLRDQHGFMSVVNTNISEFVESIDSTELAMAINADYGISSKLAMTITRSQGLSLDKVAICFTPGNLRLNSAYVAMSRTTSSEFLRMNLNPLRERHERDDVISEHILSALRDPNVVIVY

For `Nc1nc(-c2ccc(NC(=O)CN(Cc3ccc(Cl)c(I)c3)C(=O)c3ccncc3)cc2)cs1` [Example 70], the EC50 in experiment [1] came out at 0.16 µM. Also, in experiment [2], the IC50 is 0.57 µM.
For `[N-]=[N+]=Nc1ccc(C(=O)N(CC(=O)Nc2ccc(-c3csc(N)n3)cc2)Cc2ccccc2)cc1` [Example 74] the same measures were 0.12 µM and 0.28 µM.
For `CN(C)c1cccc2c(S(=O)(=O)N(CC(=O)Nc3ccc(-c4csc(N)n4)cc3)Cc3ccncc3)cccc12` [Example 99], in that order: 0.67 µM and 1.6 µM.
For `Nc1nc(-c2ccc(NC(=O)CN(Cc3ccccc3Cl)C(=O)c3ccncc3)cc2)cs1` [Example 145] the same measures were 0.019 µM and 0.39 µM.
In experiment [1], `Nc1nc(-c2ccc(NC(=O)CN(Cc3cccc(Cl)c3)C(=O)c3ccncc3)cc2)cs1` [Example 146] had a concentration giving a half-maximal response (EC50) of 0.005 µM. Further, the IC50 in experiment [2] is 0.15 µM.
With `Nc1nc(-c2ccc(NC(=O)CN(Cc3cccc(F)c3)C(=O)c3ccncc3)cc2)cs1` [Example 147], the EC50 in experiment [1] was 0.022 µM. In experiment [2], this compound showed an IC50 of 0.35 µM.
For `COc1ccccc1CN(CC(=O)Nc1ccc(-c2csc(N)n2)cc1)C(=O)c1ccncc1` [Example 148], in that order: 0.025 µM and 0.38 µM.
For `COc1cccc(CN(CC(=O)Nc2ccc(-c3csc(N)n3)cc2)C(=O)c2ccncc2)c1` [Example 149] the same measures were 0.055 µM and 0.45 µM.
For `COc1ccc(CN(CC(=O)Nc2ccc(-c3csc(N)n3)cc2)C(=O)c2ccncc2)cc1` [Example 150] the same measures were 0.12 µM and 2 µM.
The compound `Cc1cccc(CN(CC(=O)Nc2ccc(-c3csc(N)n3)cc2)C(=O)c2ccncc2)c1` [Example 151] gave an EC50 in experiment [1] of 0.011 µM. The compound also registered an IC50 in experiment [2] of 0.076 µM.
`Cc1ccc(CN(CC(=O)Nc2ccc(-c3csc(N)n3)cc2)C(=O)c2ccncc2)cc1` [Example 152]: the EC50 in experiment [1] amounted to 0.077 µM. In addition, 1.6 µM corresponded to half-maximal inhibition in experiment [2] (IC50).
As to `Nc1nc(-c2ccc(NC(=O)CN(Cc3c(F)cccc3F)C(=O)c3ccncc3)cc2)cs1` [Example 153], it took 0.19 µM to reach a half-maximal effect in experiment [1] (EC50). Besides, the IC50 in experiment [2] worked out at 1.9 µM.
For `Cc1cccc(CN(CC(=O)Nc2ccc(-c3csc(N)n3)cc2)C(=O)c2ccncc2)c1C` [Example 154] the same measures were 0.005 µM and 0.041 µM.
Take `Cc1ccc(C)c(CN(CC(=O)Nc2ccc(-c3csc(N)n3)cc2)C(=O)c2ccncc2)c1` [Example 155]: the EC50 in experiment [1] turned out to be 0.011 µM. This compound showed an IC50 in experiment [2] of 0.2 µM.
For `Cc1cccc(C)c1CN(CC(=O)Nc1ccc(-c2csc(N)n2)cc1)C(=O)c1ccncc1` [Example 156] the same measures were 0.42 µM and 3.5 µM.
The compound `Cc1cc(C)cc(CN(CC(=O)Nc2ccc(-c3csc(N)n3)cc2)C(=O)c2ccncc2)c1` [Example 157] had an EC50 in experiment [1] of 0.01 µM. In experiment [2], this compound had an IC50 of 0.04 µM.
For `Nc1nc(-c2ccc(NC(=O)CN(CCc3ccccn3)C(=O)c3ccncc3)cc2)cs1` [Example 158], in that order: 0.44 µM and 1.8 µM.
`Nc1nc(-c2ccc(NC(=O)CN(Cc3cccs3)C(=O)c3ccncc3)cc2)cs1` [Example 159] showed an EC50 in experiment [1] of 0.21 µM. In experiment [2], the IC50 turned out to be 1.7 µM.
For `Nc1nc(-c2ccc(NC(=O)CN(CCc3cccs3)C(=O)c3ccncc3)cc2)cs1` [Example 160] the same measures were 0.051 µM and 0.68 µM.
For `Nc1nc(-c2ccc(NC(=O)CN(Cc3cscn3)C(=O)c3ccncc3)cc2)cs1` [Example 161] the same measures were 0.53 µM and 3.4 µM.
On to `Cc1nc(CN(CC(=O)Nc2ccc(-c3csc(N)n3)cc2)C(=O)c2ccncc2)cs1` [Example 162], for which the EC50 in experiment [1] stood at 0.069 µM. Inhibition in experiment [2] was half-maximal at 2.5 µM (IC50).
For `Nc1nc(-c2ccc(NC(=O)CN(CCc3nccs3)C(=O)c3ccncc3)cc2)cs1` [Example 163], in that order: 0.68 µM and 2.4 µM.
Turning to `Nc1nc(-c2ccc(NC(=O)CN(CCc3cscn3)C(=O)c3ccncc3)cc2)cs1` [Example 164], in experiment [1], the midpoint of the response, the EC50, lay at 0.061 µM. Moreover, the IC50 in experiment [2] amounted to 3 µM.
Turning to `Cc1nc(CCN(CC(=O)Nc2ccc(-c3csc(N)n3)cc2)C(=O)c2ccncc2)cs1` [Example 165], the EC50 in experiment [1] is 1.1 µM. This compound also showed an IC50 in experiment [2] of 4.6 µM.
For `Cc1ccn(C)c1C(=O)N(CC(=O)Nc1ccc(-c2csc(N)n2)cc1)Cc1ccccc1` [Example 166], in that order: 0.03 µM and 0.43 µM.
For `Cc1cnccc1C(=O)N(CC(=O)Nc1ccc(-c2csc(N)n2)cc1)Cc1ccccc1` [Example 167] the same measures were 0.031 µM and 0.14 µM.
For `Cc1cc(C(=O)N(CC(=O)Nc2ccc(-c3csc(N)n3)cc2)Cc2ccccc2)cc(C)n1` [Example 168], in that order: 0.45 µM and 2.9 µM.
In experiment [1], `Nc1nc(-c2ccc(NC(=O)CN(Cc3ccccc3)C(=O)c3ccncn3)cc2)cs1` [Example 169] registered an EC50 of 0.15 µM. In experiment [2], the midpoint of inhibition, the IC50, lay at 1.4 µM.
For `Nc1nc(-c2ccc(NC(=O)CN(Cc3ccccc3)C(=O)c3cscn3)cc2)cs1` [Example 170], in that order: 1.5 µM and 0.7 µM.
For `Nc1nc(C(=O)N(CC(=O)Nc2ccc(-c3csc(N)n3)cc2)Cc2ccccc2)cs1` [Example 171], in that order: 0.092 µM and 0.46 µM.
For `Cc1nc(C(=O)N(CC(=O)Nc2ccc(-c3csc(N)n3)cc2)Cc2ccccc2)cs1` [Example 172] the same measures were 0.36 µM and 1.6 µM.
With `Cc1nc(C)c(C(=O)N(CC(=O)Nc2ccc(-c3csc(N)n3)cc2)Cc2ccccc2)s1` [Example 173], the EC50 in experiment [1] was 0.05 µM. Besides, the IC50 in experiment [2] was 0.95 µM.
`Nc1nc(-c2ccc(NC(=O)CN(CCc3ccncc3)C(=O)c3ccncc3)cc2)cs1` [Example 174] showed an EC50 in experiment [1] of 6.6 µM. The compound further registered an IC50 in experiment [2] of 9.2 µM.
